{
  "source": "patent US6610681B1",
  "about": "“Neurotherapeutic clavulanate composition and method” (Revaax Pharmaceuticals, LLC, priority 1999, dated 2003)",
  "key": {"[1]": {"settings": "in vivo; cited from earlier work"}, "[2]": {"system": "male Syrian golden hamsters", "experiment": "golden hamster seed finding model of anxiety", "assay_type": "in vivo, Mesocricetus auratus", "excerpt": "Clavulanic acid (CLAV) is structurally similar to the beta-lactam antibiotics. A most robust and simple bioassay for screening beta-lactams for CNS activity is the golden hamster seed finding model of anxiety. Briefly, hamsters are deprived of food overnight. The following day they are exposed to the additional stress of being taken from their home cage and placed in a novel environment for a few minutes. This manipulation stimulates the release of the stress hormone cortisol (FIG. 13). During their absence from the home cage, sunflower seeds are hidden under the bedding in one of the corners. When returned to the home cage, hamsters routinely scramble along the walls for 1-2 min before settling down, locating and eating the seeds. However, animals treated with the benzodiazepine anxiolytic chlordiazepoxide find seeds in less than 10 sec.\nMale, Syrian golden hamsters (Mesocricetus auratus) (120-130 g) obtained from Harlan Sprague-Dawley Laboratories (Indianapolis, Ind.) were housed individually in Plexiglas cages (24 cm×24 cm×20 cm), maintained on a reverse light:dark cycle (14L: 10D; lights on at 19:00 hr) and provided food and water ad libitum. A range of concentrations of CLAV (saline vehicle, 0.1, 1.0, 10, 100 1,000 ng/kg) were tested in six groups of hamsters (4-8/group)(FIG. 1). All tests were conducted during the dark phase of the circadian cycle under dim red illumination. Prior to testing all animals were fasted for 20-24 hrs. Ninety min after intraperitoneal (IP) injection of drug, animals were taken from their home cage and placed into a holding cage for 2 min. During their absence, six sunflower seeds were buried under the bedding in one corner of their home cage. Animals were placed back into their home cage randomly facing any one of the empty corners and timed for their latency to find the seeds in a five min observation period. Latency times were analyzed with a one-way ANOVA followed by Scheffe's post hoc tests. Assumption of equal variances was tested (Hartley's F-max=2.1 p>0.05)\nIt was hypothesized that CLAV functioned as an anxiolytic in the seed finding assay by blocking NAALADase activity in the brain. If this notion were true then it would be predicted that drugs known to block NAALADase should also enhance seed finding. To this end, animals were treated with N-acetyl-beta-aspartyl-glutamic acid (beta-NAAG), a competitive inhibitor of NAALADase (Serval et al., 1992) and tested in the seed finding model of anxiety. The study was similar to that outlined in Section I with one notable exception. […] Beta-NAAG (FW 304) was given in a dose of 3 ng in a volume of 1 μl saline ICV. The average adult hamster brain weights ca. 1.2 g of which 22% is extracellular fluid. The estimated beta-NAAG concentration was 11 ng/ml or 36 nM.\nTwo groups of six animals each were fasted overnight as previously described and tested the following day. One group was treated with beta-NAAG and the other saline vehicle and one hr later timed for latency to find the hidden sunflower seeds. A Student t-test for unpaired data was used for statistical comparisons."}, "male golden hamsters": {"system": "male golden hamsters", "experiment": "resident/intruder paradigm of offensive aggression", "assay_type": "in vivo, hamster", "settings": "3 ng ICV, after the seed finding assay", "excerpt": "Agonistic behavior can be classified as either offensive or defensive aggression (Blanchard and Blanchard, 1977; Adams, […]; Albert and Walsh, 1984). Offensive aggression is characterized by an aggressor initiating an attack on an opponent; while, defensive aggression lacks active approach. Both types of aggression have their own unique neurobehavioral systems. The stimuli that elicit offensive and defense attack are different, as are the sequences of behaviors that accompany each agonistic response. […] Offensive aggression is easily studied using male golden hamsters tested in a resident/intruder paradigm, an established model of offensive aggression (Ferris and Potegal 1988) in the context of defending the home burrow. Placing an unfamiliar male hamster into the home cage of another male hamster elicits a well-defined sequence of agonistic behaviors from the resident that includes offensive aggression.\nHamsters are nocturnal and as such all behavioral tests were performed during the first four hrs of the dark phase under dim red illumination. The resident was scored for offensive aggression, e.g., latency to bite the intruder, the total number of bites, total contact time with the intruder and flank marking over a 10 min test period (Ferris and Potegal, 1988). Flank marking is a form of olfactory communication in which a hamsters arches its back and rubs pheromone producing flank glands against objects in the environment (Johnston, 1986).\nFive male golden hamsters (130-140 g) were given IP injections of CLAV (200 μg/kg) and saline vehicle in a volume of ca. 0.2 ml. […] Vehicle and CLAV treatments were counter balanced and randomized so all five animals received each treatment separated by at least 48 hrs. Animals were tested 90 min after treatment over a 10 min observation period. Latencies and contact time were analyzed with a two-way ANOVA. Non-parametric data, i.e., number of bites and flank marks were analyzed by Wilcoxon matched-pairs signed-ranks test.\nThe animals tested in this study were those used in Section IX. After the seed finding assay, beta-NAAG (n=6) and saline vehicle (n=6) treated animals remained in their home cage and were presented with a smaller, male intruder. The resident was scored for latency to bite, bites, contact time and flank marking over a 10 min observation period. Latency to bite and contact time between treatments were compared with Student t-tests. Non-parametric measures of bites and flank marks for beta-NAAG vs vehicle were compared with Mann-Whitney."}, "male Wistar rats": {"system": "male Wistar rats", "settings": "10-25 mg/kg, literature; cited from earlier work"}, "[3]": {"system": "neurogenic peptidases (e.g., NAALADases)", "experiment": "delivery of peptide directly into the brain, behavior", "assay_type": "in vivo", "settings": "effective amounts directly into the brain"}},
  "data": [
    {"compound": "CC(=O)N[C@@H](CC(=O)N[C@@H](CCC(=O)O)C(=O)O)C(=O)O", "note": "[beta-NAAG, N-acetyl-beta-aspartyl-glutamic acid]", "values": [
      {"measurement": "passage of the blood-brain barrier", "setting": "[1]", "result": "does not readily cross the blood-brain barrier"},
      {"measurement": "difference in latency to find the seeds vs saline vehicle", "setting": "[2]; 3 ng in 1 μl ICV, one hr", "result": "significantly (p<0.001) different"},
      {"measurement": "measures of offensive aggression (latency to bite, bites, contact time, flank marking) vs vehicle", "setting": "male golden hamsters", "result": "no significant differences"}
    ]},
    {"compound": "CNC1=Nc2ccc(Cl)cc2C(c2ccccc2)=[N+]([O-])C1", "note": "[CDP, Chlordiazepoxide]", "values": [
      {"measurement": "seed finding time", "setting": "[2]; benzodiazepine anxiolytic, dose not given", "result": "less than 10 sec"},
      {"measurement": "motor activity", "setting": "male Wistar rats", "result": "depresses motor activity"}
    ]},
    {"compound": "Ala-D-γ-Glu-Lys-D-alanyl-D-alanine", "values": [
      {"measurement": "behavioral characteristics compared with β-lactam compounds", "setting": "[3]", "result": "produced the same modified behavioral characteristics"}
    ]}
  ]
}
